Measurements reported in ChEMBL document CHEMBL6078720, “Design and synthesis of novel 3,7-dihydro-1H-purine-2,6-diones as DPP-4 inhibitors: An in silico, in vitro and in vivo approach” (Eur J Med Chem, 2025).
Active and inactive are the calls of the source. The calls are words filed in the database; no cut-off is given here.

Assays:
[1] = test system: HepG2; assay: Cytotoxicity against human HepG2 cells assessed as cell viability up to 100 uM incubated for 24 hrs by MTT assay; format: toxicity, cell-based; conditions: hepg2, 24 h
[2] = Toxicity in STZ-NA induced diabetic Swiss Albino mouse model assessed as decrease in body weight at 5 mg/kg, po measured after 21 days; format: organism-based; conditions: in vivo, 504 h, time 21 day
[3] = test system: Mus musculus; assay: Chronic anti-hyperglycemic activity against STZ-NA induced diabetic Swiss Albino mouse model assessed as reduction in blood glucose level at 5 mg/kg, po measured up to 21 days; format: functional, organism-based; conditions: time <= 21.0 day
[4] = organism: Mus musculus; conditions: dose 5 mg/kg; route po; time 21 day
Description: Reversal of STZ-NA induced total ROS formation in diabetic mouse model assessed as decrease in ROS production by measuring mean fluorescence intensity at 5 mg/kg, po after 21 days (Rvb = 287228 No_unit)

[5] = organism: Mus musculus; conditions: dose 5 mg/kg; route po; time 21 day; remark: listed apart in the source
[6] = test system: Mus musculus; assay: Anti-diabetic activity against STZ-NA induced diabetic Swiss Albino mouse model assessed as decrease in blood glucose level at 5 mg/kg, po measured up to 240 mins by Oral glucose tolerance test relative to control; format: functional, organism-based
[7] = test system: Mus musculus; assay: Acute anti-hyperglycemic activity against STZ-NA induced diabetic Swiss Albino mouse model assessed as reduction in blood glucose level at 5 mg/kg, po measured up to 24 hrs; format: functional, organism-based
[8] = test system: HepG2; conditions: dose 15 nM; time 24 hrs
[9] = test system: HepG2; conditions: dose 15 nM; time 24 hrs; remark: listed apart in the source
[10] = organism: Mus musculus; conditions: dose 5 mg/kg; route po; time 21 day; remark: listed apart in the source
Description: Reversal of STZ-NA induced increase in DPP-4 production in diabetic mouse model assessed as decrease in DPP-4 expression in liver tissue by measuring mean fluorescence intensity at 5 mg/kg, po after 21 days by flow cytometry (Rvb = 322245 No_unit)

[11] = test system: Mus musculus; assay: Anti-diabetic activity against STZ-NA induced diabetic Swiss Albino mouse model assessed as decrease in blood glucose level at 10 mg/kg, po measured up to 240 mins by Oral glucose tolerance test relative to control; format: functional, organism-based
[12] = biological target: Dipeptidyl peptidase 4 (Homo sapiens, UniProt P27487); assay: Inhibition of human recombinant DPP-4 using Gly-Pro-AMC as fluorogenic substrate by measuring fluorescence intensity incubated for 30 mins
[13] = test system: Mus musculus; assay: Reversal of STZ-NA induced increase in DPP-4 expression in po dosed diabetic mouse model assessed as decrease in DPP-4 expression in cellular region after 21 days by Immunohistochemical analysis; format: functional, organism-based; conditions: dose 5-10 mg/kg, time 21.0 day
[14] = test system: Mus musculus; assay: Effect on STZ-NA induced histological abnormalities in diabetic mouse model assessed as change in hepatocyte density at 10 mg/kg, po after 21 days by hematoxylin and eosin staining based microscopic assay; format: functional, organism-based; conditions: time 21.0 day
[15] = test system: Mus musculus; assay: Effect on STZ-NA induced histological abnormalities in diabetic mouse model assessed as change in hepatocyte structure at 10 mg/kg, po after 21 days by hematoxylin and eosin staining based microscopic assay; format: functional, organism-based; conditions: time 21.0 day
[16] = test system: Mus musculus; assay: Reversal of STZ-NA induced increase in DPP-4 mRNA production in po dosed diabetic mouse model assessed as decrease in DPP-4 mRNA expression in liver tissue by measuring mean fluorescence intensity after 21 days by RT-qPCR analysis; format: functional, organism-based; conditions: dose 5-10 mg/kg, time 21.0 day
[17] = test system: Mus musculus; assay: Acute anti-hyperglycemic activity against STZ-NA induced diabetic Swiss Albino mouse model assessed as reduction in blood glucose level at 10 mg/kg, po measured up to 24 hrs; format: functional, organism-based
[18] = test system: Mus musculus; assay: Reversal of STZ-NA induced histological abnormalities in diabetic mouse model assessed as vacuolation and mild congestion at 10 mg/kg, po after 21 days by hematoxylin and eosin staining based microscopic assay; format: functional, organism-based; conditions: time 21.0 day
[19] = test system: Mus musculus; assay: Reversal of STZ-NA induced histological abnormalities in diabetic mouse model assessed as vacuoles at 10 mg/kg, po after 21 days by hematoxylin and eosin staining based microscopic assay; format: functional, organism-based; conditions: time 21.0 day
[20] = test system: Mus musculus; assay: Chronic anti-hyperglycemic activity against STZ-NA induced diabetic Swiss Albino mouse model assessed as reduction in blood glucose level at 10 mg/kg, po measured up to 21 days; format: functional, organism-based; conditions: time <= 21.0 day
[21] = organism: Mus musculus; conditions: dose 10 mg/kg; route po; time 21 day
Description: Reversal of STZ-NA induced total ROS formation in diabetic mouse model assessed as decrease in ROS production by measuring mean fluorescence intensity at 10 mg/kg, po after 21 days (Rvb = 287228 No_unit)

[22] = Toxicity in STZ-NA induced diabetic Swiss Albino mouse model assessed as decrease in body weight at 10 mg/kg, po measured after 21 days; format: organism-based; conditions: in vivo, 504 h, time 21 day
[23] = organism: Mus musculus; conditions: dose 10 mg/kg; route po; time 21 day; remark: listed apart in the source
[24] = test system: Mus musculus; assay: Reversal of STZ-NA induced histological abnormalities in diabetic mouse model assessed as enlarged extracellular gaps at 10 mg/kg, po after 21 days by hematoxylin and eosin staining based microscopic assay; format: functional, organism-based; conditions: time 21.0 day
[25] = organism: Mus musculus; conditions: dose 10 mg/kg; route po; time 21 day; remark: listed apart in the source
Description: Reversal of STZ-NA induced increase in DPP-4 production in diabetic mouse model assessed as decrease in DPP-4 expression in liver tissue by measuring mean fluorescence intensity at 10 mg/kg, po after 21 days by flow cytometry (Rvb = 322245 No_unit)

[26] = test system: Mus musculus; assay: Effect on STZ-NA induced histological abnormalities in diabetic mouse model assessed as change in appearance of liver at 10 mg/kg, po after 21 days by hematoxylin and eosin staining based microscopic assay; format: functional, organism-based; conditions: time 21.0 day
[27] = test system: Mus musculus; assay: Reversal of STZ-NA induced histological abnormalities in diabetic mouse model assessed as hepatic portal vein at 10 mg/kg, po after 21 days by hematoxylin and eosin staining based microscopic assay; format: functional, organism-based; conditions: time 21.0 day
[28] = test system: Mus musculus; assay: Effect on STZ-NA induced histological abnormalities in diabetic mouse model assessed as change in hepatocyte size at 10 mg/kg, po after 21 days by hematoxylin and eosin staining based microscopic assay; format: functional, organism-based; conditions: time 21.0 day

Dipeptidyl peptidase 4, sequence (P27487 whole entry): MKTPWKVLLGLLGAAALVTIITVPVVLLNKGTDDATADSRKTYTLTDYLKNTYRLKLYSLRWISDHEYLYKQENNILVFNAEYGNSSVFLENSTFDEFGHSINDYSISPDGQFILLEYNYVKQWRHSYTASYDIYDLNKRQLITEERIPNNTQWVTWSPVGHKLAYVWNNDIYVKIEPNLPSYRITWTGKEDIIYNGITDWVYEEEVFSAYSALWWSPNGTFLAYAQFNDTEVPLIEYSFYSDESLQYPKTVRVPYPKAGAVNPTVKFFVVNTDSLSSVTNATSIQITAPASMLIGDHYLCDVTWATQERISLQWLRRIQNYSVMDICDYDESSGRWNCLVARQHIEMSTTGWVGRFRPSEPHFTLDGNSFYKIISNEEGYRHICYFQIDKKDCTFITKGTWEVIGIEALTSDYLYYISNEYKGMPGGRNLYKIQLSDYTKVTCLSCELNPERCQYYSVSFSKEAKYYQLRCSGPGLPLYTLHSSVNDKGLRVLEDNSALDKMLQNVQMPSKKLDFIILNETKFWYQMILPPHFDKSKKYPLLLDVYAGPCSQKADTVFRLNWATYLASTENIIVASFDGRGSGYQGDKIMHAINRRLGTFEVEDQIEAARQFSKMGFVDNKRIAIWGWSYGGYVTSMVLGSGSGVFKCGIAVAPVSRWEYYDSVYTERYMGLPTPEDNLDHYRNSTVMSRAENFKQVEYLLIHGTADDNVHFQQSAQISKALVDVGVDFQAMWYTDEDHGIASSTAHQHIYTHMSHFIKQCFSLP

## C=CCn1c(=O)c2c(ncn2Cc2ccc(C#N)cc2)n(Cc2ccccc2)c1=O
[1]
  Activity: Non-toxic

## Cn1c(=O)c2c(nc(Oc3ccc([N+](=O)[O-])cc3)n2Cc2ccc(Cl)cc2Cl)n(C)c1=O
[1]
  Activity: Non-toxic

## Cn1c(=O)c2c(nc(Oc3ccc4ccc(=O)oc4c3)n2CC(=O)c2ccc(-c3ccccc3)cc2)n(C)c1=O
[1]
  Activity: Non-toxic

## Cc1ccc(Cn2cnc3c2c(=O)n(Cc2ccc(C#N)cc2)c(=O)n3C)cc1
[1]
  Activity: Non-toxic

## Cn1c(=O)c2c(nc(Oc3ccc(C=O)cc3)n2Cc2ccc(F)cc2)n(C)c1=O
[1]
  Activity: Non-toxic

## Cn1c(=O)c2c(nc(Oc3ccc(Br)cc3)n2CC(=O)c2ccc(-c3ccccc3)cc2)n(C)c1=O
[1]
  Activity: Non-toxic

## Cn1c(=O)c2c(nc(Oc3ccc(C=O)cc3)n2Cc2ccc(Cl)cc2Cl)n(C)c1=O
[1]
  Activity: Non-toxic

## Cn1c(=O)c2c(nc(Oc3ccc([N+](=O)[O-])cc3)n2CC(=O)c2ccc(-c3ccccc3)cc2)n(C)c1=O
[1]
  Activity: Non-toxic

## Cn1c(=O)c2c(nc(N3CCOCC3)n2Cc2cccc([N+](=O)[O-])c2)n(C)c1=O
[1]
  Activity: Non-toxic

## Cn1c(=O)[nH]c(=O)c2c1nc(Oc1ccc([N+](=O)[O-])cc1)n2Cc1ccc(C#N)cc1
[1]
  Activity: Non-toxic

## CC#CCn1c(N2CCC[C@@H](N)C2)nc2c1c(=O)n(Cc1nc(C)c3ccccc3n1)c(=O)n2C [LINAGLIPTIN]
[2]
  Activity: Toxic
[3]
  Activity: Active
[4]
  Flu intensity: 15930
[5]
  Flu intensity: 2520
[6]
  Activity: Active
[7]
  Activity: Active
[8]
  Flu intensity: 3493
[9]
  Flu intensity: 1212
[10]
  Flu intensity: 20334

## Cn1c(=O)c2c(nc(N3CCOCC3)n2Cc2ccccc2)n(C)c1=O
[11]
  Activity: Active
[2]
  Activity: Toxic
[1]
  Activity: Non-toxic
[12]
  IC50: 15.7 nM
[13]
  Activity: Dose-dependent-effect
[14]
  Activity: inactive
[15]
  Activity: inactive
[16]
  Activity: Dose-dependent-effect
[17]
  Activity: Active; Results Comparable To Linagliptin
[18]
  Activity: inactive
[19]
  Activity: Active
[20]
  Activity: Active; Results Comparable To Linagliptin
[21]
  Flu intensity: 49658
[4]
  Flu intensity: 82220
[5]
  Flu intensity: 11036
[22]
  Activity: Toxic
[6]
  Activity: Active
[8]
  Flu intensity: 6930
[23]
  Flu intensity: 4811
[24]
  Activity: Active
[25]
  Flu intensity: 89888
[26]
  Activity: inactive
[27]
  Activity: Active; Hepatic Portal Vein Looked Similar To Normal Group
[28]
  Activity: inactive
[9]
  Flu intensity: 1460
[10]
  Flu intensity: 240545

## Cn1c(=O)n(Cc2ccccc2)c(=O)c2c1nc(Oc1ccc([N+](=O)[O-])cc1)n2Cc1ccc(C#N)cc1
[1]
  Activity: Non-toxic

## Cn1c(=O)c2c(nc(N3CCOCC3)n2Cc2ccc(F)cc2)n(C)c1=O
[1]
  Activity: Non-toxic

## Cn1c(=O)[nH]c(=O)c2c1nc(N1CCOCC1)n2Cc1ccc(Cl)cc1
[1]
  Activity: Non-toxic

## C=CCn1c(Oc2ccc([N+](=O)[O-])cc2)nc2c1c(=O)n(Cc1nc(C)c3ccccc3n1)c(=O)n2C
[11]
  Activity: Active
[2]
  Activity: Toxic
[1]
  Activity: Non-toxic
[13]
  Activity: Dose-dependent-effect
[14]
  Activity: inactive
[15]
  Activity: inactive
[16]
  Activity: Dose-dependent-effect
[18]
  Activity: inactive
[19]
  Activity: Active
[21]
  Flu intensity: 138121
[4]
  Flu intensity: 165558
[5]
  Flu intensity: 36602
[22]
  Activity: Toxic
[6]
  Activity: Active
[8]
  Flu intensity: 82988
[23]
  Flu intensity: 9136
[24]
  Activity: Active
[25]
  Flu intensity: 154821
[26]
  Activity: inactive
[27]
  Activity: Active; Hepatic Portal Vein Looked Similar To Normal Group
[28]
  Activity: inactive
[9]
  Flu intensity: 3565
[10]
  Flu intensity: 248748

## COc1cccc(Cn2c(N3CCOCC3)nc3c2c(=O)n(C)c(=O)n3C)c1
[1]
  Activity: Non-toxic
[12]
  IC50: 27.9 nM
